Measurements published in patent US20260258015A1, “CRYSTALLINE FORMS OF 2-(4-(4-(AMINOMETHYL)-1-OXO-1,2- DIHYDROPHTHALAZIN-6-YL)-1-METHYL-1H- PYRAZOL-5-YL)-4-CHLORO-6-CYCLOPROPOXY-3-FLUOROBENZONITRILE” (MIRATI THERAPEUTICS, INC., priority 2023, published 2026).

Legend:
[1] = Behaviour of the isolated solid after air drying at ambient condition (hygroscopicity); type: physicochemical; conditions: solid from slurry of free base, sulfuric acid and THF; air dried at ambient condition
Description: Using the amorphous free base from Example 1, 64 salt screen experiments were conducted using 16 acids in four solvent systems, plus four blank experiments in each respective solvent system. Slurry methods as disclosed herein were used to provide salt polymorphs of Compound 1. […] After magnetically stirring for four days at room temperature, any precipitation was isolated by centrifugation. If there was no precipitation after four days at room temperature, the clear solutions were transferred to stir at 5° C. to induce crystallization for 24 hours. If still no solids were observed, the final clear solution was subjected to slow evaporation at room temperature for four days. Any isolated solid was air dried at ambient condition before analysis.
[…]. As such, DSC/TGA data were not collected.

[2] = acids (counterions) used in the salt screen of Compound 1; cited from earlier work

| SMILES | state of the solid after air drying (hygroscopicity) [1] | pKa [2] |
| --- | --- | --- |
| Cn1ncc(-c2ccc3c(=O)[nH]nc(CN)c3c2)c1-c1c(F)c(Cl)cc(OC2CC2)c1C#N.O=S(=O)(O)O [sulfate salt Form A, 2-(4-(4-(aminomethyl)-1-oxo-1,2-dihydrophthalazin-6-yl)-1-methyl-1H-pyrazol-5-yl)-4-chloro-6-cyclopropoxy-3-fluorobenzonitrile sulfate] | remained a wet paste, likely due to hygroscopicity | – |
| O=C(O)CC(O)C(=O)O (centres unmarked) [Malic acid] | – | 3.16 |
